The record followed here is patent publication US20250084095A1, “Aminopyrimidine Derivatives as Cyclin-Dependent Kinase Inhibitors” (Accutar Biotechnology Inc., priority 2023, published 2025).

Assay [1] deals with Phospho-Rb (Ser807/811) in MCF7 cells. In words: Phospho-Rb expression inhibition in MCF7 cells quantified by in cell Western. It is filed as cell-based, human. Conditions: Homo sapiens, MCF7, 24 h, 24 hours, in cell Western, read-out: MCF7 pRb IC50. The essentials:
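MCF7 cells were seeded at 20,000/well, grown overnight, then treated 24 h at 37 °C with compound dilutions (0.1% DMSO from 1000× stocks). Fixed cells were co-stained for phospho-Rb Ser807/811 and total Rb. Near-infrared dual-channel in-cell Western imaging was the read-out.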

The subject of assay [2] is 22RV1 cells. In words: Cell growth inhibition of 22RV1 cells (CellTiter-Glo). Conditions: Homo sapiens, 22Rv1, 120 h, 5 days, CellTiter-Glo, read-out: 22RV1 Cell Growh GI50. It is filed as cell-based. The essentials:
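22RV1 cells were plated in RPMI1640 with FBS (20% in one version, 10% in the other) and dosed next day at various concentrations from DMSO stocks. After 5 days at 37 °C, viability was measured by CellTiter-Glo luminescence.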
In general terms: ATP-based viability assays read luminescence as a measure of living cells.

The term IC50 denotes the point on the concentration scale where inhibition reaches its midpoint. For orientation: GI50 means the concentration giving 50% growth inhibition. Turning to `Cc1c(CN)n(C(C)C)c2cc(-c3nc(N[C@@H]4C[C@H]5CO[C@H](O5)[C@H]4O)ncc3F)ccc2c1=O` [Compound 193, 2-(aminomethyl)-7-(5-fluoro-2-(((1S,3R,4S,5R)-4-hydroxy-6,8-dioxabicyclo[3.2.1]octan-3-yl)amino)pyrimidin-4-yl)-1-isopropyl-3-methylquinolin-4(1H)-one], the IC50 in assay [1] fell in the range of 150 to 1000 nM. The 50% growth inhibitory concentration (GI50) in assay [2] is 120 to 450 nM.
Turning to `Cc1c(CN2CC(O)C2)n(C(C)C)c2cc(-c3nc(N[C@@H]4C[C@H]5CO[C@H](O5)[C@H]4O)ncc3F)ccc2c1=O` [Compound 198, 7-(5-fluoro-2-(((1S,3R,4S,5R)-4-hydroxy-6,8-dioxabicyclo[3.2.1]octan-3-yl)amino)pyrimidin-4-yl)-2-((3-hydroxyazetidin-1-yl)methyl)-1-isopropyl-3-methylquinolin-4(1H)-one], in assay [1], the IC50 is 150 to 1000 nM. In addition, in assay [2], the GI50 is 450 to 3000 nM.
Take `CC(C)n1c(CN2[C@@H](C)COC[C@@H]2C)c(F)c(=O)c2ccc(-c3nc(N[C@@H]4C[C@H]5CO[C@H](O5)[C@H]4O)ncc3F)cc21` [Compound 200, 2-(((3S,5S)-3,5-dimethylmorpholino)methyl)-3-fluoro-7-(5-fluoro-2-(((1S,3R,4S,5R)-4-hydroxy-6,8-dioxabicyclo[3.2.1]octan-3-yl)amino)pyrimidin-4-yl)-1-isopropylquinolin-4(1H)-one]: in assay [1], the IC50 was 40 to 150 nM. The concentration for 50% growth inhibition (GI50) in assay [2] is 120 to 450 nM.
For `Cc1c(CN2CC[C@H](O)C2)n(C(C)C)c2cc(-c3nc(N[C@@H]4C[C@H]5CO[C@H](O5)[C@H]4O)ncc3F)ccc2c1=O` [Compound 207, 7-(5-fluoro-2-(((1S,3R,4S,5R)-4-hydroxy-6,8-dioxabicyclo[3.2.1]octan-3-yl)amino)pyrimidin-4-yl)-2-(((S)-3-hydroxypyrrolidin-1-yl)methyl)-1-isopropyl-3-methylquinolin-4(1H)-one] the same measures were 40 to 150 nM and not above 120 nM.
On to `Cc1c(CN2CCC(F)(F)C2)n(C(C)C)c2cc(-c3nc(N[C@@H]4C[C@H]5CO[C@H](O5)[C@H]4O)ncc3F)ccc2c1=O` [Compound 208, 2-((3,3-difluoropyrrolidin-1-yl)methyl)-7-(5-fluoro-2-(((1S,3R,4S,5R)-4-hydroxy-6,8-dioxabicyclo[3.2.1]octan-3-yl)amino)pyrimidin-4-yl)-1-isopropyl-3-methylquinolin-4(1H)-one], for which the half-inhibitory concentration (IC50) in assay [1] was not above 40 nM. Moreover, in assay [2], the GI50 was not above 120 nM.
`CC(C)n1c(CN2[C@@H](C)COC[C@@H]2C)cc(=O)c2ccc(-c3nc(N[C@@H]4C[C@H]5CO[C@H](O5)[C@H]4O)ncc3F)cc21` [Compound 209, 2-(((3S,5S)-3,5-dimethylmorpholino)methyl)-7-(5-fluoro-2-(((1S,3R,4S,5R)-4-hydroxy-6,8-dioxabicyclo[3.2.1]octan-3-yl)amino)pyrimidin-4-yl)-1-isopropylquinolin-4(1H)-one]: the half-maximal inhibitory concentration (IC50) in assay [1] is 40 to 150 nM. Besides, the 50% growth inhibitory concentration (GI50) in assay [2] is 120 to 450 nM.
Take `CC(C)n1c(CN2CC[C@@H](F)C2)cc(=O)c2ccc(-c3nc(N[C@@H]4C[C@H]5CO[C@H](O5)[C@H]4O)ncc3F)cc21` [Compound 210, 7-(5-fluoro-2-(((1S,3R,4S,5R)-4-hydroxy-6,8-dioxabicyclo[3.2.1]octan-3-yl)amino)pyrimidin-4-yl)-2-(((R)-3-fluoropyrrolidin-1-yl)methyl)-1-isopropylquinolin-4(1H)-one]: the half-maximal inhibitory concentration (IC50) in assay [1] lay in the range of 150 to 1000 nM. Besides, the 50% growth inhibitory concentration (GI50) in assay [2] fell in the range of 450 to 3000 nM.
Take `Cc1c(CN2CCOC2=O)n(C(C)C)c2cc(-c3nc(N[C@@H]4C[C@H]5CO[C@H](O5)[C@H]4O)ncc3F)ccc2c1=O` [Compound 211, 3-((7-(5-fluoro-2-(((1S,3R,4S,5R)-4-hydroxy-6,8-dioxabicyclo[3.2.1]octan-3-yl)amino)pyrimidin-4-yl)-1-isopropyl-3-methyl-4-oxo-1,4-dihydroquinolin-2-yl)methyl)oxazolidin-2-one]: in assay [1], the half-maximal inhibitory concentration (IC50) was more than 1000 nM. Also, the GI50 in assay [2] is more than 3000 nM.
For the compound `Cc1c(CN2C[C@H](C)OC2=O)n(C(C)C)c2cc(-c3nc(N[C@@H]4C[C@H]5CO[C@H](O5)[C@H]4O)ncc3F)ccc2c1=O` [Compound 212, (S)-3-((7-(5-fluoro-2-(((1S,3R,4S,5R)-4-hydroxy-6,8-dioxabicyclo[3.2.1]octan-3-yl)amino)pyrimidin-4-yl)-1-isopropyl-3-methyl-4-oxo-1,4-dihydroquinolin-2-yl)methyl)-5-methyloxazolidin-2-one], the IC50 in assay [1] lay within 150 to 1000 nM. In addition, the concentration for 50% growth inhibition (GI50) in assay [2] is more than 3000 nM.
As to `Cc1c(C(=O)N2[C@@H](C)COC[C@@H]2C)n(C(C)C)c2cc(-c3nc(N[C@@H]4C[C@H]5CO[C@H](O5)[C@H]4O)ncc3Cl)ccc2c1=O` [Compound 213, 7-(5-chloro-2-(((1S,3R,4S,5R)-4-hydroxy-6,8-dioxabicyclo[3.2.1]octan-3-yl)amino)pyrimidin-4-yl)-2-((3S,5S)-3,5-dimethylmorpholine-4-carbonyl)-1-isopropyl-3-methylquinolin-4(1H)-one], the IC50 in assay [1] was more than 1000 nM. Moreover, the GI50 in assay [2] was more than 3000 nM.
For `Cc1c(C(=O)N2CCOCC2)n(C(C)C)c2cc(-c3nc(N[C@@H]4C[C@H]5CO[C@H](O5)[C@H]4O)ncc3Cl)ccc2c1=O` [Compound 214, 7-(5-chloro-2-(((1S,3R,4S,5R)-4-hydroxy-6,8-dioxabicyclo[3.2.1]octan-3-yl)amino)pyrimidin-4-yl)-1-isopropyl-3-methyl-2-(morpholine-4-carbonyl)quinolin-4(1H)-one] the same measures were more than 1000 nM and more than 3000 nM.
Regarding `Cc1c(-c2nc(N[C@@H]3C[C@H]4CO[C@H](O4)[C@H]3O)ncc2F)sc2cc(CN3[C@@H](C)COC[C@@H]3C)n(C)c(=O)c12` [Compound 215, 6-(((3S,5S)-3,5-dimethylmorpholino)methyl)-2-(5-fluoro-2-(((1S,3R,4S,5R)-4-hydroxy-6,8-dioxabicyclo[3.2.1]octan-3-yl)amino)pyrimidin-4-yl)-3,5-dimethylthieno[3,2-c]pyridin-4(5H)-one], in assay [1], the IC50 lay within 40 to 150 nM. For the same compound, the GI50 in assay [2] lay in the range of 450 to 3000 nM.
Regarding `CC(C)n1c(C(C)(C)N2CCOCC2)nc2c(F)cc(-c3nc(N[C@@H]4C[C@H]5CO[C@H](O5)[C@H]4O)ncc3Cl)cc21` [Compound 219, (1S,3R,4S,5R)-3-((5-chloro-4-(4-fluoro-1-isopropyl-2-(2-morpholinopropan-2-yl)-1H-benzo[d]imidazol-6-yl)pyrimidin-2-yl)amino)-6,8-dioxabicyclo[3.2.1]octan-4-ol], the IC50 in assay [1] fell in the range of 40 to 150 nM. The GI50 in assay [2] is 120 to 450 nM.
Turning to `CC(C)n1c(C(C)(C)N2CC(F)(F)C2)nc2c(F)cc(-c3nc(N[C@@H]4C[C@H]5CO[C@H](O5)[C@H]4O)ncc3Cl)cc21` [Compound 222, (1S,3R,4S,5R)-3-((5-chloro-4-(2-(2-(3,3-difluoroazetidin-1-yl)propan-2-yl)-4-fluoro-1-isopropyl-1H-benzo[d]imidazol-6-yl)pyrimidin-2-yl)amino)-6,8-dioxabicyclo[3.2.1]octan-4-ol], the 50% inhibitory concentration (IC50) in assay [1] is 150 to 1000 nM. Also, the GI50 in assay [2] was in the range of 450 to 3000 nM.
Turning to `Cc1c(-c2nc(N[C@@H]3C[C@H]4CO[C@H](O4)[C@H]3O)ncc2Cl)sc2c(C(C)C)cn(C(F)F)c(=O)c12` [Compound 231, 2-(5-chloro-2-(((1S,3R,4S,5R)-4-hydroxy-6,8-dioxabicyclo[3.2.1]octan-3-yl)amino)pyrimidin-4-yl)-5-(difluoromethyl)-7-isopropyl-3-methylthieno[3,2-c]pyridin-4(5H)-one], in assay [1], the half-inhibitory concentration (IC50) was 40 to 150 nM. For the same compound, the GI50 in assay [2] was 450 to 3000 nM.
The matching figures for `Cc1c(-c2nc(N[C@@H]3C[C@H]4CO[C@H](O4)[C@H]3O)ncc2F)sc2cc(CN3CCOCC3)n(C)c(=O)c12` [Compound 232, 2-(5-fluoro-2-(((1S,3R,4S,5R)-4-hydroxy-6,8-dioxabicyclo[3.2.1]octan-3-yl)amino)pyrimidin-4-yl)-3,5-dimethyl-6-(morpholinomethyl)thieno[3,2-c]pyridin-4(5H)-one]: 150 to 1000 nM and 450 to 3000 nM.
As for `CC(C)c1cn(C)c(=O)c2ccc(-c3nc(N[C@@H]4C[C@H]5CO[C@H](O5)[C@H]4O)ncc3Cl)cc12` [Compound 236, 6-(5-chloro-2-(((1S,3R,4S,5R)-4-hydroxy-6,8-dioxabicyclo[3.2.1]octan-3-yl)amino)pyrimidin-4-yl)-4-isopropyl-2-methylisoquinolin-1(2H)-one], the concentration for half-maximal inhibition (IC50) in assay [1] was 150 to 1000 nM. In addition, the concentration for 50% growth inhibition (GI50) in assay [2] was 450 to 3000 nM.
Regarding `CC(C)c1cc2cc(-c3nc(N[C@@H]4C[C@H]5CO[C@H](O5)[C@H]4O)ncc3Cl)ccc2c(=O)n1C` [Compound 237, 6-(5-chloro-2-(((1S,3R,4S,5R)-4-hydroxy-6,8-dioxabicyclo[3.2.1]octan-3-yl)amino)pyrimidin-4-yl)-3-isopropyl-2-methylisoquinolin-1(2H)-one], in assay [1], the IC50 fell in the range of 40 to 150 nM. Further, the 50% growth inhibitory concentration (GI50) in assay [2] lay in the range of 450 to 3000 nM.
On to `CC(C)n1c(C2CC(F)C2)nc2c(F)cc(-c3nc(N[C@@H]4C[C@H]5CO[C@H](O5)[C@H]4O)ncc3Cl)cc21` (stereo partly drawn) [Compound 242, (1S,3R,4S,5R)-3-((5-chloro-4-(4-fluoro-2-((1s,3S)-3-fluorocyclobutyl)-1-isopropyl-1H-benzo[d]imidazol-6-yl)pyrimidin-2-yl)amino)-6,8-dioxabicyclo[3.2.1]octan-4-ol], for which, in assay [1], the IC50 was not above 40 nM. Moreover, the GI50 in assay [2] was 120 to 450 nM.
Turning to `CC(C)n1c(C2CC(O)C2)nc2c(F)cc(-c3nc(N[C@@H]4C[C@H]5CO[C@H](O5)[C@H]4O)ncc3Cl)cc21` (stereo partly drawn) [Compound 244, (1S,3R,4S,5R)-3-((5-chloro-4-(4-fluoro-2-((1s,3S)-3-hydroxycyclobutyl)-1-isopropyl-1H-benzo[d]imidazol-6-yl)pyrimidin-2-yl)amino)-6,8-dioxabicyclo[3.2.1]octan-4-ol], the 50% inhibitory concentration (IC50) in assay [1] was in the range of 40 to 150 nM. Moreover, in assay [2], the 50% growth inhibitory concentration (GI50) lay within 120 to 450 nM.
